US5455233A, “Oligoribonucleoside and oligodeoxyribonucleoside boranophosphates” (University of North Carolina, priority 1992, dated 1995)

What was measured:
[1] = system: serum cholesterol; assay: Antihyperlipidemic activity: serum cholesterol levels in male CF1 mice; assay type: in vivo; conditions: for Percent Inhibition, Serum Cholesterol, Day 9: Day 9, 8 mg/kg intraperitoneally; for Percent Inhibition, Serum Cholesterol, Day 16: Day 16, 8 mg/kg intraperitoneally
Method: (§1) Compounds to be tested were suspended in 1% aqueous carboxymethylcellulose,homogenized and administered to male CF1 mice (25 g) intraperitoneally for 16d. On days 9 and 16, blood was obtained by tail vein bleeding, and the serum was separated by centrifugation for three minutes. The serum cholesterol levels were determined by a modification of the Liebermann-Burchard reaction in accordance with known techniques. See A. Ness, et al., Clin. Chim. Acta 10, 229 (1964). Serum triglyceride levels were determined with a commercial kit, the Fisher Hycel Triglyceride Test Kit, for a different group of animals bled on day 16.

[2] = system: serum triglyceride; assay: Antihyperlipidemic activity: serum triglyceride levels in male CF1 mice; assay type: in vivo; conditions: 8 mg/kg intraperitoneally
Method: as §1

[3] = system: inflammatory response (carrageenan, hind foot); assay: Anti-inflammatory activity: carrageenan-induced paw inflammation in CF1 male mice; assay type: in vivo; conditions: 8 mg/kg intraperitoneally 3 hours and 30 minutes prior to carrageenan; feet excised after 3 hours
Method: Anti-Inflammatory Activity CF1 male mice (~25 g) were administered test drugs at 5-40 mg/kg in 0.05% Tween 80-H2 O intraperitoneally 3 hours prior to and 30 minutes prior to the injection of 0.2 ml of 1% carrageenan in 0.9% saline into the plantar surface of the right hind foot. Saline was injected into the left hind foot, which serves as a base line. After 3 hours, both feet were excised at the tibiotarsal (ankle) joint according to standard procedures. See C. Winter et al., Proc. Soc. Expt. Biol Med. 544, 111 (1962); A. Roszkawski et al., J. Pharm. Exp. Ther. 179, 114 (1971). Control mice afforded a 78±3 mg increase in paw weight.

[4] = system: KB epidermoid oral nesopharnyx; assay: Cytotoxic activity, KB epidermoid oral nesopharnyx; assay type: cell-based; conditions: cell density estimated when controls converged
Method: The cytotoxic activity of oligonucleoside boranophosphates of the present invention was tested on the following neoplastic cell lines:
6. KB epidermoid oral nesopharnyx. R. Geran, supra; H. Eagle, Proc. Soc. Expt. Biol. 89, 362 (1955) (grown in EMEM+5% calf serum).
The cytotoxic screens were conducted according to NIH protocols, see E. Huang et al., J. Pharm. Sci. 61, 108 (1972), with 10^4 cells, growth medium, antibiotics and drugs from 0.5 to 100 μg/ml final concentration. For the L1210, Hela-S, amd Tmolt, (i.e. the suspended cells), the incubations were conducted in sterile test tubes in a final volume of 1 ml for 72 hr at 37° C. in a CO2 incubator. The cells on the third day were still in log growth phase. The number of cells/ml are determined using trypan blue exclusion and a hemocytometer. See, e.g., R. Geran, supra. For solid tumors 1×10^4 cells are plated with 1 ml of medium+ antibiotics and the other components of growth. When the controls have converged (≈95%) then the density of the cells is estimated and the ED50 values calculated.

Substance | Percent Inhibition, Serum Cholesterol, Day 9 [1] | Percent Inhibition, Serum Cholesterol, Day 16 [1] | Percent Inhibition, Serum Triglyceride, Day 16 [2] | Percent Inhibition of the inflammatory response [3] | ED50, KB [4]
thymidylyl[3'-5']-(3'-acetylthymidylyl) (borane)phosphonate methyl ester [Compound A] | 38% | 46% | 12% | 37% | 3.51 µg/mL
thymidylyl[3'-5']thymidylyl[3'-5'](3'-acetylthymidylyl) boranephosphonate dimethyl ester [Compound T] | 33% | 32% | 18% | 40% | 0.61 µg/mL
